Results published in US8999355B2, “Non-rinse off cosmetic composition and a cosmetic product comprising said composition” (Natura Cosmeticos S.A., priority 2005, dated 2015).

Experiment: In vitro tests of lamellar structure formation
Type: physicochemical
Conditions: RMT associated to palmitic acid

Question: For “ricinoleyl monomaleate triglyceride [RMT]”, which structure formed is on record?
Answer: Its structure formed is “form a lamellar structure very similar to the lamellar gel structure that is naturally present in healthy skins”.
